This is an account of results in patent US20120202806A1, “Novel Pyrimidine- And Triazine-Hepcidine Antagonists” (VIFOR (INTERNATIONAL) AG, priority 2009, published 2012).

One assay concerns the target T1, human ferroportin (Fpn) (Homo sapiens, UniProt Q9NP59).
T1 construct: expressed in transfected cells
T1 sequence (Q9NP59 1-571): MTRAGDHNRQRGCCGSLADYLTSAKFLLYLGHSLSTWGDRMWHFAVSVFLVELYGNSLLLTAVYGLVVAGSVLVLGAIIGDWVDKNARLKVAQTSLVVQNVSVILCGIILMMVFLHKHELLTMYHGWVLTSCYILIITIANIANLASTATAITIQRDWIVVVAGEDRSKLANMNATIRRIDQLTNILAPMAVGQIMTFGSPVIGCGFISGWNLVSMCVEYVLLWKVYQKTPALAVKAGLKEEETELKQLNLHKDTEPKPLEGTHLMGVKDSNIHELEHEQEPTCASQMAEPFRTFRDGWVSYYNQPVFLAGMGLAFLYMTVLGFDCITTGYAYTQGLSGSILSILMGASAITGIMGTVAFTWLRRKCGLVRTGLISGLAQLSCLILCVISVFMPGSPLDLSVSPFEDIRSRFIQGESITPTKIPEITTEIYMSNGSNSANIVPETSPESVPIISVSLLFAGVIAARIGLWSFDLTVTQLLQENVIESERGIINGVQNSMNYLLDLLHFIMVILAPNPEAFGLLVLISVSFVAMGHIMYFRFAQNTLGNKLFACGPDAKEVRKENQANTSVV
Briefly: Ferroportin internalisation assay (inhibition of hepcidin-induced internalisation of Fpn in MDCK-FPN-HaloTag cells). Type of assay: cell-based. Conditions: 100 nM hepcidin, overnight incubation, 11 concentrations 0.04 to 40 μM. On the procedure: The antagonistic effect against hepcidin of the pyrimidine and triazine compounds of the present invention was determined by means of the ferroportin internalisation assay described below.
Low molecular weight organic compounds which counteract the biological effects of hepcidin on its receptor, the iron exporter ferroportin (Fpn) were identified on the basis of their ability to inhibit hepcidin-induced internalisation of Fpn in living cells. A stable cell line (Madin-Darby Canine Kidney, MDCK) was produced for this purpose to express constitutively human ferroportin which is fused recombinantly with a fluorescent reporter protein (HaloTag®, Promega Corp.) at its C terminus. The internalisation of Fpn was monitored by marking these cells with fluorescent ligands (HaloTag® TMR, tetramethylrhodamine) which attach themselves covalently to the HaloTag reporter gene fused with the Fpn. […] Optimised image analysis algorithms were used to detect the cell surface and to quantify the corresponding membrane fluorescence associated with the Fpn-HaloTag fusion protein.
In the case of `COc1cnc(CN)nc1NC(C)C` [Example 50, (2-Aminomethyl-5-methoxy-pyrimidin-4-yl)-isopropyl-amine], the IC50 (commonly the concentration needed to halve the response being measured) was less than 50 µM. The compound `COc1cnc(-c2ccccn2)nc1N(C)Cc1ccccc1` [Example 24, Benzyl-(5-methoxy-2-pyridin-2-yl-pyrimidin-4-yl)-methyl-amine] displayed an IC50 of more than 50 µM.

The same assay, now with this note: 10 μM substance, 100 nM hepcidin, inhibition of Fpn internalisation, read-out: I [%] (Median Inhibition [%] at 10 μM substance conc.).
Regarding `c1ccc(N(c2ccccc2)c2nc(N3CCOCC3)nc(-n3ccnc3)n2)cc1` [Example 10, (4-Imidazol-1-yl-6-morpholin-4-yl-[1,3,5]triazin-2-yl)-diphenyl-amine], the inhibition (commonly the drop in the measured response relative to a control, in per cent) at 10 µM is more than 50%. On the same count and under the same terms, to `Cc1ccc2cc(Nc3nc(N4CCOCC4)nc(N4CCOCC4)n3)ccc2n1` [Example 12, (4,6-Dimorpholin-4-yl-[1,3,5]triazin-2-yl)-(2-methyl-quinolin-6-yl)-amine] belongs less than 50%; to `C/C(=N\Nc1cc(N2CCOCC2)nc(C)n1)c1ccc(F)cc1` [Example 8, N-[1-(4-Fluoro-phenyl)-ethylidene]-N′-(2-methyl-6-morpholin-4-yl-pyrimidin-4-yl)-hydrazine], less than 50%; to `Cc1nc(-c2ccccn2)nc(NCCNc2cc(C(F)(F)F)ccn2)c1Cl` [Example 2, N-(5-Chloro-6-methyl-2-pyridin-2-yl-pyrimidin-4-yl)-N′-(4-trifluoromethyl-pyridin-2-yl)-ethane-1,2-diamine], less than 50%.

Take `Nc1nc(-c2ccccn2)nc(N)c1Cc1ccccc1F` [Example 3, 5-(2-Fluoro-benzyl)-2-pyridin-2-yl-pyrimidine-4,6-diamine]: the inhibition at 10 µM is less than 50%.

As for `CN(c1ccccc1)c1nc(N2CCOCC2)nc(-n2ccnc2)n1` [Example 11, (4-Imidazol-1-yl-6-morpholin-4-yl-[1,3,5]triazin-2-yl)-methyl-phenyl-amine], the inhibition at 10 µM is less than 50%.

Take `COc1ccc(O)c(/C=N/Nc2nc(N3CCOCC3)nc(N3CCOCC3)n2)c1` [Example 9, 2-[(4,6-Dimorpholin-4-yl-[1,3,5]triazin-2-yl)-hydrazonomethyl]-4-methoxy-phenol]: the inhibition at 10 µM is more than 50%. As to `Oc1cccc(/C=N/Nc2cc(N3CCOCC3)nc(N3CCOCC3)n2)c1` [Example 5, 3-[(2,6-Dimorpholin-4-yl-pyrimidin-4-yl)-hydrazonomethyl]-phenol], the inhibition at 10 µM is more than 50%. In the case of `COc1cnc(-c2ccccn2)nc1NC(C)C` [Example 1, Isopropyl-(5-methoxy-2-pyridin-2-yl-pyrimidin-4-yl)-amine], the inhibition at 10 µM was more than 50%.

On to `Cc1nc(N/N=C/c2ccc(O)cc2O)cc(N2CCOCC2)n1` [Example 6, 4-[(2-Methyl-6-morpholin-4-yl-pyrimidin-4-yl)-hydrazonomethyl]-benzene-1,3-diol], for which the inhibition at 10 µM was more than 50%. In the case of `Cc1nc(-c2ccccn2)nc(NCCNc2ccc(C(F)(F)F)cn2)c1Cl` [Example 4, N-(5-Chloro-6-methyl-2-pyridin-2-yl-pyrimidin-4-yl)-N′-(5-trifluoromethyl-pyridin-2-yl)-ethane-1,2-diamine], the inhibition at 10 µM was less than 50%. On to `Oc1ccccc1/C=N/Nc1cc(N2CCOCC2)nc(N2CCOCC2)n1` [Example 7, 2-[(2,6-Dimorpholin-4-yl-pyrimidin-4-yl)-hydrazonomethyl]-phenol], for which the inhibition at 10 µM is more than 50%.
